Our source for the Ki values is BindingDB's records for doi:10.1016/s0960-894x(01)00126-3 (Technische Universität Graz, 2001).

A short description of this assay: Tested for inhibitory activity against Beta-glucosidase from Agrobacterium species.
On to `CCCCCCCCCCCC(=O)NC[C@H]1N[C@H](CO)[C@H](O)[C@@H]1O` [Dodecanoic acid ((3S,4S,5R)-3,4-dihydroxy-5-hydroxymethyl-pyrrolidin-2-ylmethyl)-amide], for which the Ki (as a rule, a measure of affinity in units of concentration, obtained from inhibition or displacement) was 0.1 µM.
With `O=C(NC[C@H]1N[C@H](CO)[C@H](O)[C@@H]1O)c1cccc2ccccc12` [Naphthalene-1-carboxylic acid ((3S,4S,5R)-3,4-dihydroxy-5-hydroxymethyl-pyrrolidin-2-ylmethyl)-amide] the figure was 0.55 µM; with `O=C(CCc1ccccc1)NC[C@@H]1N[C@H](CO)[C@H](O)[C@@H]1O` [N-((3S,4S,5R)-3,4-Dihydroxy-5-hydroxymethyl-pyrrolidin-2-ylmethyl)-3-phenyl-propionamide], 0.15 µM.
With `CCN(CC)c1ccc2cc(C(=O)NC[C@H]3N[C@H](CO)[C@H](O)[C@@H]3O)c(=O)oc2c1` [7-Diethylamino-2-oxo-2H-chromene-3-carboxylic acid ((R)-(3R,5S)-3,4-dihydroxy-5-hydroxymethyl-pyrrolidin-2-ylmethyl)-amide] the figure was 0.0012 µM.
